Experimental data: US11944622B2 (Annapurna Bio, Inc., priority 2018, dated 2024)

Biological target: T1, APJ Receptor (Homo sapiens, UniProt P35414)
T1 sequence (P35414 1-380): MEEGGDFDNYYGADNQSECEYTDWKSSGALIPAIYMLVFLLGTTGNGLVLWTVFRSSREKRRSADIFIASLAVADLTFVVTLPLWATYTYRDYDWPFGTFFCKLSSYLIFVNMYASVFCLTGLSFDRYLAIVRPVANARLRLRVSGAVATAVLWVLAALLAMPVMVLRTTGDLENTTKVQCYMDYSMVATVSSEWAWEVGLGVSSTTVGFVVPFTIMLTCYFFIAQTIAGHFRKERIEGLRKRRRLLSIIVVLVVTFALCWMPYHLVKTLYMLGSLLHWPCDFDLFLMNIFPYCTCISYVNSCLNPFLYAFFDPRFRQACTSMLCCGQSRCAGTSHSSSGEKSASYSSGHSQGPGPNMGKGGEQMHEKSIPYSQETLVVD
Assay: APJ cAMP assay (DiscoverX enzyme fragment complementation; inhibition of forskolin-stimulated cAMP)
Assay type: cell-based
Conditions: CHO-K1 cell line stably expressing the APJ Receptor; EC80 forskolin; 30 minutes at 37° C.; read-out: Potency Range (APJ cAMP EC50)
Outline: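 CHO-K1 cells stably expressing APJ incubated with compound plus EC80 forskolin for 30 min at 37° C. cAMP detected by β-galactosidase enzyme fragment complementation with chemiluminescent read-out; % activity calculated relative to vehicle and maximal controls.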

Compound	EC50 [nM]
CCOc1cccc(-c2nc3nnc(NS(=O)(=O)c4ccc(F)cn4)cc3n2-c2c(OC)cccc2OC)n1 [Example 120, N-(7-(2,6-Dimethoxyphenyl)-8-(6-ethoxypyridin-2-yl)-7H-imidazo[4,5-c]pyridazinyl)-5-fluoropyridine-2-sulfonamide]	< 1
CCOc1cccc(-c2nc3nnc(NS(=O)(=O)N4CCOCC4)cc3n2-c2c(OC)cccc2OC)n1 [Example 121, N-(7-(2,6-Dimethoxyphenyl)-8-(6-ethoxypyridin-2-yl)-7H-imidazo[4,5-c]pyridazinyl)morpholine-4-sulfonamide]	1 to 100
CCOc1cccc(-c2nc3nnc(NS(=O)(=O)Cc4ccc(F)cc4)cc3n2-c2c(OC)cccc2OC)n1 [Example 122, N-(7-(2,6-Dimethoxyphenyl)-8-(6-ethoxypyridin-2-yl)-7H-imidazo[4,5-c]pyridazinyl)-1-(4-fluorophenyl)methanesulfonamide]	< 1
CCOc1cccc(-c2nc3nnc(NS(=O)(=O)Cc4ccc(Cl)cn4)cc3n2-c2c(OC)cccc2OC)n1 [Example 123, 1-(5-Chloropyridin-2-yl)-N-(7-(2,6-dimethoxyphenyl)-8-(6-ethoxypyridin-2-yl)-7H-imidazo[4,5-c]pyridazinyl)methanesulfonamide]	< 1
CCOc1cccc(-c2nc3nnc(NS(=O)(=O)Cc4ccc(C)cn4)cc3n2-c2c(OC)cccc2OC)n1 [Example 124, N-(7-(2,6-Dimethoxyphenyl)-8-(6-ethoxypyridin-2-yl)-7H-imidazo[4,5-c]pyridazinyl)-1-(5-methylpyridin-2-yl)methanesulfonamide]	< 1
CCOc1cccc(-c2nc3nnc(NS(=O)(=O)Cc4ccc(F)cn4)cc3n2-c2c(OC)cccc2OC)n1 [Example 125, N-(7-(2,6-Dimethoxyphenyl)-8-(6-ethoxypyridin-2-yl)-7H-imidazo[4,5-c]pyridazinyl)-1-(5-fluoropyridin-2-yl)methanesulfonamide]	< 1
CCOc1cccc(-c2nc3nnc(NS(=O)(=O)Cc4ncc(C)cn4)cc3n2-c2c(OC)cccc2OC)n1 [Example 126, N-(7-(2,6-Dimethoxyphenyl)-8-(6-ethoxypyridin-2-yl)-7H-imidazo[4,5-c]pyridazinyl)-1-(5-methylpyrimidin-2-yl)methanesulfonamide]	< 1
CCOc1cccc(-c2nc3nnc(NS(=O)(=O)Cc4ncccn4)cc3n2-c2c(OC)cccc2OC)n1 [Example 127, N-(5-(2,6-Dimethoxyphenyl)-6-(6-ethoxypyridin-2-yl)-5H-imidazo[4,5-c]pyridazin-3-yl)-1-(pyrimidin-2-yl)methanesulfonamide]	< 1
CCOc1cccc(-c2nc3nnc(NS(=O)(=O)CC4CC(C)(O)C4)cc3n2-c2c(OC)cccc2OC)n1 (centres unmarked) [Example 128, N-(5-(2,6-Dimethoxyphenyl)-6-(6-ethoxypyridin-2-yl)-5H-imidazo[4,5-c]pyridazin-3-yl)-1-(3-hydroxy-3-methylcyclobutyl)methanesulfonamide]	< 1
CCOc1cccc(-c2nc3nnc(NS(=O)(=O)Cc4ncc(O)cn4)cc3n2-c2c(OC)cccc2OC)n1 [Example 129, N-(7-(2,6-Dimethoxyphenyl)-8-(6-ethoxypyridin-2-yl)-7H-imidazo[4,5-c]pyridazinyl)-1-(5-hydroxypyrimidin-2-yl)methanesulfonamide]	1 to 100
COc1cccc(OC)c1-n1c(-c2ccc(C)o2)nc2nnc(NS(C)(=O)=O)cc21 [Example 130, N-(7-(2,6-Dimethoxyphenyl)-8-(5-methylfuran-2-yl)-7H-imidazo[4,5-c]pyridazinyl)methanesulfonamide]	100 to 10000
COc1cccc(OC)c1-n1c(-c2ccc(C)o2)nc2ncc(NS(C)(=O)=O)nc21 [Example 131, N-(1-(2,6-dimethoxyphenyl)-2-(5-methylfuran-2-yl)-1H-imidazo[4,5-b]pyrazin-6-yl)methanesulfonamide]	1 to 100
COc1cccc(OC)c1-n1c(-c2cncc(C)c2)nc2ncc(NS(C)(=O)=O)nc21 [Example 132, N-(1-(2,6-dimethoxyphenyl)-2-(5-methylpyridin-3-yl)-1H-imidazo[4,5-b]pyrazin-6-yl)methanesulfonamide]	100 to 10000
COc1cccc(OC)c1-n1c(-c2cncc(C)c2)nc2ncc(NS(=O)(=O)C3CC3)nc21 [Example 133, N-(1-(2,6-dimethoxyphenyl)-2-(5-methylpyridin-3-yl)-1H-imidazo[4,5-b]pyrazin-6-yl)cyclopropanesulfonamide]	100 to 10000
CCCOc1nc2ncc(NS(=O)(=O)c3ccccc3)nc2n1-c1c(OC)cccc1OC [Example 134, N-(1-(2,6-Dimethoxyphenyl)-2-propoxy-1H-imidazo[4,5-b]pyrazin-6-yl) benzenesulfonamide]	100 to 10000
CCOc1cccc(-c2nc3nc(O)c(NS(C)(=O)=O)nc3n2-c2c(OC)cccc2OC)n1 [Example 135, N-(1-(2,6-Dimethoxyphenyl)-2-(6-ethoxypyridin-2-yl)-5-hydroxy-1H-imidazo[4,5-b]pyrazin-6-yl)methanesulfonamide]	1 to 100
CCOc1cccc(-c2nc3nc(N4CC(O)C4)c(NS(C)(=O)=O)nc3n2-c2c(OC)cccc2OC)n1 [Example 136, N-(1-(2,6-Dimethoxyphenyl)-2-(6-ethoxypyridin-2-yl)-5-(3-hydroxyazetidin-1-yl)-1H-imidazo[4,5-b]pyrazin-6-yl)methanesulfonamide]	100 to 10000
C=Cc1nc2nc(-c3cccc(OCC)n3)n(-c3c(OC)cccc3OC)c2nc1NS(C)(=O)=O [Example 137, N-(1-(2,6-Dimethoxyphenyl)-2-(6-ethoxypyridin-2-yl)-5-vinyl-1H-imidazo[4,5-b]pyrazin-6-yl)methanesulfonamide]	1 to 100
CCOc1cccc(-c2nc3nc(NS(C)(=O)=O)c(Cl)nc3n2-c2c(OC)cccc2OC)n1 [Example 138, N-(6-Chloro-1-(2,6-dimethoxyphenyl)-2-(6-ethoxypyridin-2-yl)-1H-imidazo[4,5-b]pyrazin-5-yl)methanesulfonamide]	1 to 100
CCOc1cccc(-c2nc3nnc(NS(C)(=O)=O)c(C)c3n2-c2c(OC)cccc2OC)n1 [Example 139, N-(7-(2,6-Dimethoxyphenyl)-8-(6-ethoxypyridin-2-yl)-6-methyl-7H-imidazo[4,5-c]pyridazinyl)methanesulfonamide]	1 to 100
CCOc1cccc(-c2nc3nc(CO)c(NS(C)(=O)=O)nc3n2-c2c(OC)cccc2OC)n1 [Example 140, N-(1-(2,6-Dimethoxyphenyl)-2-(6-ethoxypyridin-2-yl)-5-(hydroxymethyl)-1H-imidazo[4,5-b]pyrazin-6-yl)methanesulfonamide]	1 to 100
CCOc1cccc(-c2nc3nc(COC(F)F)c(NS(C)(=O)=O)nc3n2-c2c(OC)cccc2OC)n1 [Example 141, N-(5-((Difluoromethoxy)methyl)-1-(2,6-dimethoxyphenyl)-2-(6-ethoxypyridin-2-yl)-1H-imidazo[4,5-b]pyrazin-6-yl)methanesulfonamide]	1 to 100
CCOc1cccc(-c2nc3nc(Cl)c(NS(=O)(=O)Cc4ncc(C)cn4)nc3n2-c2c(OC)cccc2OC)n1 [Example 142, N-(5-Chloro-1-(2,6-dimethoxyphenyl)-2-(6-ethoxypyridin-2-yl)-1H-imidazo[4,5-b]pyrazin-6-yl)-1-(5-methylpyrimidin-2-yl)methanesulfonamide]	< 1
